Results: patent publication US7655676B2, “Use of amide derivative of GE 2270 factor A3 for the treatment of acne” (Naicons S.C.A.R.L., priority 2002, dated 2010)
Converted amounts (≈) assume the structure as drawn. “And” between values parts separate entries of the source, which are not always exact repeats. Identical values can stand only once.

What was measured:
[1] = test system: clinical isolates of P. acnes displaying antibiotic-resistant phenotypes; test: MIC against clinical isolates of P. acnes displaying antibiotic-resistant phenotypes (Table 2); type: cell-based, Propionibacterium acnes; settings: for Cumul. %: resistant isolates
Source text: (§3) MIC50 and MIC90 means minimum inhibitory concentration capable of inhibiting 50% and 90%, respectively, of the strains tested.

[2] = test system: clinical isolates of P. acnes displaying antibiotic-sensitive phenotypes; test: MIC against clinical isolates of P. acnes displaying antibiotic-sensitive phenotypes (Table 3); type: cell-based, Propionibacterium acnes; settings: Cutibacterium acnes
Source text: as §3

Staphylococcus aureus = test: MIC in vitro, Staphylococcus aureus (Table 1); type: cell-based
Source text: (§1) In particular, bacterial strains which should not be affected by topical administration of the anti-acne candidate compound are Staphylococcus aureus, Staphylococcus epidermidis, and Streptococcus pyogenes strains.
(§2) The tests have been carried out in comparison with antibiotic GE 2270 and four representative compounds (B, C, D and E) described in U.S. Pat. No. 5,599,791.

[3] = test system: Staphylococcus epidermidis; test: MIC in vitro, Staphylococcus epidermidis (Table 1); type: cell-based; settings: ATCC 12228, MH
Source text: as §1, §2

Streptococcus pyogenes = test: MIC in vitro, Streptococcus pyogenes (Table 1); type: cell-based; settings: C 203, MH
Source text: as §1, §2

Propionibacterium acne = test: MIC in vitro, Propionibacterium acne strains (Table 1); type: cell-based, Propionibacterium acnes
Source text: as §1, §2

Compound | MIC50 ([1]; Cutibacterium acnes) [µg/mL] | MIC90 ([1]; Cutibacterium acnes) [µg/mL] | N° isolates ([1]; resistant isolates with MIC 512 μg/ml) | N° isolates ([1]; resistant isolates with MIC 1024 μg/ml) | N° isolates ([1]; resistant isolates with MIC 2048 μg/ml) | Cumul. % ([1]; cumulative at MIC 512 μg/ml) [%] | Cumul. % ([1]; cumulative at MIC 1024 μg/ml) [%] | Cumul. % ([1]; cumulative at MIC 2048 μg/ml) [%] | MIC90 [2] [µg/mL] | MIC (Staphylococcus aureus; MRSA, MH) [µg/mL] | MIC (Staphylococcus aureus; Smith ATCC 19636, MH + 30% bovine serum) [µg/mL] | MIC (Staphylococcus aureus; Smith ATCC 19636, Mueller Hinton (MH)) [µg/mL] | MIC [3] [µg/mL] | MIC (Streptococcus pyogenes) [µg/mL] | MIC (Propionibacterium acne; ATCC 6919, Wilkins Chalgren (WC)) [µg/mL] | MIC (Propionibacterium acne; ATCC 6922, WC) [µg/mL] | MIC (Propionibacterium acne; ATCC 25746, WC) [µg/mL] | MIC (Propionibacterium acne; clinical isolate, WC (one table line per isolate)) | MIC (Propionibacterium acne; clinical isolate, medium not given) [µg/mL]
CC[C@H]1OC(=O)[C@H](C)[C@@H](O[C@H]2C[C@@](C)(OC)[C@@H](O)[C@H](C)O2)[C@H](C)[C@@H](O[C@@H]2O[C@H](C)C[C@H](N(C)C)[C@H]2O)[C@](C)(O)C[C@@H](C)C(=O)[C@H](C)[C@@H](O)[C@]1(C)O [Erythromycin] | 1020 (≈ 1400 µM) | 2050 (≈ 2790 µM) | 1 | 11 | 3 | 7 | 80 | 100 | 0.125 (≈ 0.17 µM) |  |  |  |  |  |  |  |  |  | 
GE 2270 |  |  |  |  |  |  |  |  |  | <0.125 | 0.25 | 0.06 | <0.125 | 0.25 | <0.125 | <0.125 | <0.125 | <0.125 µg/mL and 0.125 µg/mL | <0.125
